1 molecule from patent US6015820A, “4-Aryl-thio-pyridin-2(1H)-ones, medicines containing them and their uses in the treatment of illnesses linked to HIV” (priority 1995, dated 2000) can be followed below.

This test has as its target T1, IT of recombinant HIV-1 (Human immunodeficiency virus type 1 group M subtype B, UniProt P03369).
T1 construct: purify the IT enzyme of the recombinant HIV-1; made in house; host or cells: yeast cells transformed with the pAB 24/IT-4 vector
The test is described as follows: inhibition of the inverse transcriptase of recombinant HIV-1. It is filed as biochemical. Here is the method:
Yeast cells transformed with the pAB 24/IT-4 vector were used to purify the IT enzyme of the recombinant HIV-1 as described by Sallafranque-Andreola et al. (1989 Eur. J. Biochem. 184, 364-374).
Incubation was carried out at 37° C. for 10 minutes in the presence of various matrix-primers.
a) Poly C-oligo dG: the reaction mixture contained a final volume of 0.05 ml, Tris-HCl 50 mM pH 8.0, MgCl2 5 mM, dithiothreitol 4 mM, 0.48 A260 /ml of poly C-oligo dG (5:1), 1.0 μCi of [^3 H]dGTP (28 Ci/mmole), dGTP 2 μM, KCl 80 mM, 1 μg of bovine serum albumin and IT 20-50 nM.
b) Poly A-oligo dT: the same conditions as in a), except that 0.48 A260 /ml of poly A-oligo dT (5:1), 0.5 μCi of [^3 H]dTTP (46 Ci/mmole), dTTP 20 μM were used.
The reactions were stopped by adding in the cold 1 ml of 10% trichloroacetic acid plus sodium pyrophosphate 0.1 M. The precipitates were filtered through nitrocellulose membranes, washed with 2% trichloroacetic acid, dried and counted in a PPO/POPOP/toluene scintillation mixture.
All the compounds were dissolved in dimethyl#sulphoxide (DMSO). The test samples were prepared in the presence of the same final concentration of DMSO. IC50 is the concentration required to inhibit the activity of the IT of the recombinant HIV-1 by 50%.

On to `CCc1c(C)[nH]c(=O)c([N+](=O)[O-])c1Sc1cc(C)cc(C)c1` [Compound 7c, 5-ethyl-6-methyl-3-nitro-4-(3', 5'-dimethylphenyl)thio-pyridin-2(1H)-one], for which the IC50 – broadly, the concentration needed to halve the response being measured – is 30 nM. Where the note is “FIG. 9”, the “effect on activity of the IT of HIV-1 in HIV-1/HIV-2 comparison” value is given as “well inhibited”. For the setting “poly C-oligo dG compared with poly A-oligo dT (FIG. 9)”, the “IT inhibition according to matrix-primer couple” value is “Better inhibition was obtained in the presence of poly C-oligo dG compared with poly A-oligo dT”.
